Legend:
Breast tumors (MAXF 401) = experiment: Breast tumor MAXF 401 xenograft in nude mice, T/C value and mortality; assay type: in vivo; conditions: ip twice weekly over 5 weeks
Experimental: (§1) All the tests were carried out using female nude mice under standard conditions for the keeping of animals with controlled illumination and temperature. The animals were given water and food as desired.
(§2) Breast tumors (MAXF 401) were implanted subcutaneously into the rear members of the mice aged 10 weeks. The increase in the volume of the individual tumors was measured using microcallipers, and the size of the tumor was calculated according to the formula a*b^2/2 (where a is the largest diameter of the tumor and b is the vertical axis). When the tumor volume had increased to 80-120 mm^3, the animals were allocated at random into test groups of in each case 6 animals.
The test compound (in the form of sodium salts) was dissolved in a saline solution, and 5% Klucel (hydroxypropylcellulose) was added in order to dissolve the test compound in the carrier. The compound was administered by intraperitoneal injection. A volume of 10 ml/kg body weight was injected. […] The tumor volume and the body weight were checked twice weekly, and the relative tumor volumes were calculated as the […]. […]
On the basis of the relative tumor volumes of the animals treated with the test compound compared with the tumor volumes of the controls treated only with the carrier, the T/C values were calculated and were used as the index of anti-tumor activity. […]

MAXF-401 xenograft tumor = experiment: Dose-dependent anti-tumor activity in the MAXF-401 xenograft tumor model; assay type: in vivo
Experimental: as §2
The anti-tumor activity of the substance of Example 2a (sodium salt) was tested in a xenograft tumor panel. Therefore, xenografts of human tumors derived from the mentioned cancers were implanted in nude mice. The implantation and the determination of tumor volumes were carried out as described hereinbefore. Groups of 5 to 8 animals were used. The test compound was administered by ip injection twice weekly in the mentioned doses in the form of the sodium salt as an aqueous solution.
Therein, the anti-tumor activity of the compound of Example 2a (sodium salt) was examined in the MAXF-401 xenograft tumor model in the nude mouse. Subcutaneous implantation of the tumor and the determination of the tumor volume was carried out as described hereinbefore. The test compound was administered by ip injection twice weekly in the mentioned doses in the form of the sodium salt as an aqueous solution over a period of 4 weeks. […] A dose of 100 mg/kg was determined as the threshold dose, ≧200 mg/kg as the ED90 of the anti-tumor activity.

[1] = test system: CXF280 xenograft tumor (colon carcinoma); experiment: Dose-dependent anti-tumor activity in the CXF280 colon carcinoma xenograft model; assay type: in vivo
Experimental: as §2
The anti-tumor activity of the compound of Example 2a was thereby determined in the CXF280 xenograft tumor model in the nude mouse. Subcutaneous implantation of the tumor and the determination of tumor volumes were carried out as described hereinbefore. The test substance was administered by ip injection twice weekly in the mentioned doses in the form of the sodium salt as an aqueous solution, over a period of 4 weeks. Groups of in each case 8 animals were used.

[2] = Necrotic changes in the kidneys of treated animals; assay type: in vivo, nude mice; conditions: affected animals/animals
Experimental: as §1
No necrotic changes were found in the kidneys of the animals treated with the compound according to the invention. This confirms the excellent tolerability profile of the compounds according to the invention.

[3] = MAXF-401, ip twice weekly over 4 weeks, sodium salt

## O=C(O)CCOc1ccc(C(=O)c2ccc(N=C=S)cc2)cc1 [Example 2a]
Breast tumors (MAXF 401); MAXF 401 breast tumor, sodium salt, ratio of tumor size treated/untreated, 100% would be no activity
  T/C value: 1.7
Breast tumors (MAXF 401); dead animals/animals in the group
  Mortality: 0/6
MAXF-401 xenograft tumor; MAXF-401, dose range used
  tolerability: well tolerated
MAXF-401 xenograft tumor; MAXF-401, dose ≧200 mg/kg
  tumor response under therapy: remission of the tumors was observed
MAXF-401 xenograft tumor; [3]
  ED90 of the anti-tumor activity: ≥ 200 mg/kg
  threshold dose of the anti-tumor activity: 100 mg/kg
[1]; CXF280, dose group of 200 mg/kg and 300 mg/kg
  tumor growth inhibition and remission: complete inhibition of tumor growth and the induction of remissions to obliteration of the tumor
[1]; CXF280, dose range used
  tolerability: well tolerated
  weight loss in the animals: not associated with a significant weight loss
[1]; CXF280, doses of 100, 200 or 300 mg/kg ip twice weekly over 4 weeks
  anti-tumor action: pronounced anti-tumor action
[1]; CXF280, ip twice weekly over 4 weeks
  ED90 doses: 200 mg/kg
[2]
  Acute single-cell necrosis: 0/9
  Focal tubular necrosis: 0/9
